# Peptide text beside a SMILES is read from it. * marks the point of attachment. Cbz = O=C(OCc1ccccc1)*; OtBu = CC(C)(C)O*
# Tests used:
# [1] = biological target: Cathepsin B (Homo sapiens, UniProt P07858)
# Description: Inhibition of cathepsin B
# [2] = biological target: Cathepsin S (Homo sapiens, UniProt P25774)
# Description: Inhibition of cathepsin S
# [3] = test system: PC-3; experiment: cells; conditions: Homo sapiens
# Description: Antiproliferative activity against human PC3 cell line
# [4] = in vitro; conditions: human, plasma
# Description: Stability in human plasma after 120 mins
# [5] = physchem; conditions: PBS, pH 7.4
# Description: Solubility in PBS at pH 7.4
# Cathepsin S, sequence (P25774 whole entry): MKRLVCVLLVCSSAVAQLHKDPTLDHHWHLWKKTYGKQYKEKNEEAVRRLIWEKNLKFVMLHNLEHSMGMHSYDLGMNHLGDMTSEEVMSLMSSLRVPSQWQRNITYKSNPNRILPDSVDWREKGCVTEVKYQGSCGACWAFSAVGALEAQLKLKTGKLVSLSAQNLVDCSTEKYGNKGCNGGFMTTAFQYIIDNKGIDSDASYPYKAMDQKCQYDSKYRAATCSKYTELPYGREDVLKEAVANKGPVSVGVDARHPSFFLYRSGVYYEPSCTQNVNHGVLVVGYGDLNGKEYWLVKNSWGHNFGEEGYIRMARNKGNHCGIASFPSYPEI
SMILES,IC50 [1] [µM],IC50 [2] [µM],IC50 [3] [µM],remaining at 2 h [4] [%],solubility [5] [µM],Ki [1] [µM],Ki [2] [µM]
CC[C@H](C)[C@H](NC(=O)OCc1ccccc1)C(=O)N[C@@H](Cc1ccccc1)C(=O)N[C@@H](C)C(=O)N[C@H](/C=C/S(C)(=O)=O)CC(C)C,27,9,,,,,
CC[C@H](C)[C@H](NC(=O)OCc1ccccc1)C(=O)N[C@@H](CC(=O)OC(C)(C)C)C(=O)N[C@@H](C)C(=O)N[C@H](/C=C/S(C)(=O)=O)CC(C)C,,,3.25,,,,
CC[C@H](C)[C@H](NC(=O)OCc1ccccc1)C(=O)N[C@@H](CS(C)(=O)=O)C(=O)N[C@@H](C)C(=O)N[C@H](/C=C/S(C)(=O)=O)CC(C)C,140,13,,,,,
CC[C@H](C)[C@H](NC(=O)OCc1ccccc1)C(=O)N[C@@H](CC(C)C)C(=O)N[C@@H](C)C(=O)N[C@H](/C=C/S(C)(=O)=O)CC(C)C,5.8,0.7,0.8,66,,,
CC(=O)N[C@@H](CCC(=O)OC(C)(C)C)C(=O)N[C@@H](C)C(=O)N[C@H](/C=C/S(C)(=O)=O)CC(C)C,77,170,7.5,,,,
Cc1ccc(S(=O)(=O)N[C@@H](CC(=O)NCC(C)(C)C)C(=O)N[C@@H](C)C(=O)NC(C)(C)C(=O)c2nnc(-c3ccccc3)o2)cc1,,,,100,249,,
CC[C@H](C)[C@H](NC(=O)OCc1ccccc1)C(=O)N[C@@H](CC(=O)NCC(C)(C)C)C(=O)N[C@@H](C)C(=O)N[C@H](/C=C/S(C)(=O)=O)CC(C)C,,,0.2,90,< 10,,
CC(C)C[C@@H](/C=C/S(C)(=O)=O)NC(=O)[C@H](CO)NC(=O)[C@H](CCC(=O)OC(C)(C)C)NC(=O)OCc1ccccc1,,,3,,,,
Cc1ccc(S(=O)(=O)N[C@@H](CCC(=O)OC(C)(C)C)C(=O)N[C@@H](C)C(=O)N[C@H](/C=C/S(C)(=O)=O)CC(C)C)cc1,13,67,0.5,7,48,,
CC(C)C[C@@H](/C=C/S(C)(=O)=O)NC(=O)[C@H](C)NC(=O)[C@H](CCC(=O)OC(C)(C)C)NC(=O)C(c1ccccc1)c1ccccc1,,,0.5,1,< 10,,
CC[C@H](C)[C@H](NC(=O)OCc1ccccc1)C(=O)N[C@@H](COCc1ccccc1)C(=O)N[C@@H](C)C(=O)N[C@H](/C=C/S(C)(=O)=O)CC(C)C,38,35,0.45,83,,,
CC[C@H](C)[C@H](NC(=O)OCc1ccccc1)C(=O)N[C@@H](CCC(=O)NC(C)(C)C)C(=O)N[C@@H](C)C(=O)N[C@H](/C=C/S(C)(=O)=O)CC(C)C,51,3.3,5000,89,57,,
CC(C)C[C@@H](/C=C/S(C)(=O)=O)NC(=O)[C@H](C)NC(=O)[C@H](CCC(=O)OC(C)(C)C)NC(=O)OCc1ccccc1,20,3,6.5,1,< 10,,
CC(=O)N[C@@H](CCc1ccccc1)C(=O)N[C@@H](CC(C)C)C(=O)NCC(=O)N[C@H](/C=C/S(C)(=O)=O)CC(C)C,> 150,12,,,,,
Cc1cccc(S(=O)(=O)N[C@@H](CC(=O)NCC(C)(C)C)C(=O)N[C@@H](C)C(=O)N[C@@H](CC(C)C)C(=O)c2nnc(-c3ccccc3)o2)c1,,,,28,< 10,,
CC(C)C[C@@H](/C=C/S(C)(=O)=O)NC(=O)[C@H](C)NC(=O)[C@H](CCC(=O)OC(C)(C)C)NC(=O)c1ccccc1,,,1.75,,,,
CC[C@H](C)[C@H](NC(=O)OCc1ccccc1)C(=O)N[C@@H](CCC(=O)NC(C)C)C(=O)N[C@@H](C)C(=O)N[C@H](/C=C/S(C)(=O)=O)CC(C)C,> 150,41,3000,89,,,
Cc1ccc(S(=O)(=O)N[C@@H](CC(=O)NCC(C)(C)C)C(=O)N[C@@H](CO)C(=O)N[C@H](/C=C/S(C)(=O)=O)CC(C)C)cc1,> 150,> 150,2.4,99,381,,
CC[C@H](C)[C@H](NC(=O)OCc1ccccc1)C(=O)N[C@@H](CCC(=O)NC(C)(C)CC)C(=O)N[C@@H](C)C(=O)N[C@H](/C=C/S(C)(=O)=O)CC(C)C,,,0.55,83,20,,
COC[C@H](NC(=O)[C@H](CC(=O)NCC(C)(C)C)NS(=O)(=O)c1ccc(C)cc1)C(=O)N[C@@H](CC(C)C)C(=O)c1nnc(-c2ccccc2)o1,,,,79,37,44,8.1

SMILES,IC50 [1] [µM],IC50 [2] [µM],IC50 [3] [µM],remaining at 2 h [4] [%],solubility [5] [µM],Ki [1] [µM],Ki [2] [µM]
Cc1ccc(S(=O)(=O)N[C@@H](CC(=O)NCC(C)(C)C)C(=O)N[C@@H](C)C(=O)N[C@@H](CC(C)C)C(=O)c2nnc(-c3ccc(N(C)C)cc3)o2)cc1,,,,72,< 10,,
Cc1ccc(S(=O)(=O)N[C@@H](CC(=O)NCC(C)(C)C)C(=O)N[C@@H](C)C(=O)N[C@H](/C=C/S(C)(=O)=O)CC(C)C)cc1,,,,96,470,,
CC(=O)N[C@@H](CCc1ccccc1)C(=O)N[C@@H](CC(C)C)C(=O)N[C@H](C)C(=O)N[C@H](/C=C/S(C)(=O)=O)CC(C)C,> 150,77,,,,,
CC[C@H](C)[C@H](NC(=O)OCc1ccccc1)C(=O)N[C@@H](CCC(=O)OC1CCCCC1)C(=O)N[C@@H](C)C(=O)N[C@H](/C=C/S(C)(=O)=O)CC(C)C,,,,0,,,
Cc1ccc(S(=O)(=O)N[C@@H](CC(=O)NCC(C)(C)C)C(=O)NC(C)(C)C(=O)N[C@H](/C=C/S(C)(=O)=O)CC(C)C)cc1,,,,100,500,,
CC(C)C[C@@H](/C=C/S(C)(=O)=O)NC(=O)CNC(=O)[C@H](CCC(=O)OC(C)(C)C)NC(=O)OCc1ccccc1,> 150,21,,,,,
CC[C@H](C)[C@H](NC(=O)OCc1ccccc1)C(=O)N[C@@H](CS(=O)(=O)Cc1ccccc1)C(=O)N[C@@H](C)C(=O)N[C@H](/C=C/S(C)(=O)=O)CC(C)C,> 150,12,,,,,
CC[C@H](C)[C@H](NC(=O)OCc1ccccc1)C(=O)N[C@@H](CCCC(=O)OC(C)(C)C)C(=O)N[C@@H](C)C(=O)N[C@H](/C=C/S(C)(=O)=O)CC(C)C,18,7.1,,20,,,
Cc1ccc(S(=O)(=O)N[C@@H](CC(=O)NCC(C)(C)C)C(=O)N[C@@H](C)C(=O)N[C@@H](CC(C)C)C(=O)c2nnc(-c3ccccc3)o2)cc1,,,,86,13,72,39
CC(=O)N[C@@H](CCc1ccccc1)C(=O)N[C@@H](CC(C)C)C(=O)N[C@@H](C)C(=O)N[C@H](/C=C/S(C)(=O)=O)CC(C)C,1.6,6.9,,,,,
CC(=O)N[C@@H](CCc1ccccc1)C(=O)N[C@@H](CC(C)C)C(=O)N[C@@H](Cc1ccccc1)C(=O)N[C@H](/C=C/S(C)(=O)=O)CC(C)C,0.85,0.15,3,100,,,
CC(C)C[C@@H](/C=C/S(C)(=O)=O)NC(=O)[C@H](CO)NC(=O)[C@H](CCC(=O)OC(C)(C)C)NS(=O)(=O)c1ccccc1,,,4,,,,
CC[C@H](C)[C@H](NC(=O)OCc1ccccc1)C(=O)N1CCC[C@H]1C(=O)N[C@@H](C)C(=O)N[C@H](/C=C/S(C)(=O)=O)CC(C)C,23,13,,,,,
CC(C)C[C@@H](C=O)NC(=O)[C@H](CC(C)C)NC(=O)[C@H](CC(C)C)NC(=O)OCc1ccccc1 [MG-132] (Cbz-Leu-Leu-Leu-aldehyde),,,0.6,,,0.012,
CC[C@H](C)[C@H](NC(=O)OCc1ccccc1)C(=O)N[C@@H](CCc1ccccc1)C(=O)N[C@@H](C)C(=O)N[C@H](/C=C/S(C)(=O)=O)CC(C)C,41,10,0.6,22,< 10,,
CC[C@H](C)[C@H](NC(=O)OCc1ccccc1)C(=O)N[C@@H](CCC(=O)OC(C)(C)C)C(=O)N[C@@H](C)C(=O)N[C@H](/C=C/S(C)(=O)=O)CC(C)C,29,36,2,52,< 10,,
CC(C)C[C@@H](C#N)NC(=O)[C@H](CC(C)C)NC(=O)[C@H](CC(C)C)NC(=O)OCc1ccccc1,,,,,,18,0.046
CC[C@H](C)[C@H](NC(=O)OCc1ccccc1)C(=O)N[C@@H](CCC(=O)OC(C)(C)C)C(=O)N[C@@H](C)C(=O)N[C@H](C=O)CC(C)C (Cbz-IE(OtBu)AL-aldehyde),,,0.375,,,,
CC[C@H](C)[C@H](NC(=O)OCc1ccccc1)C(=O)N[C@@H](CCC(N)=O)C(=O)N[C@@H](C)C(=O)N[C@H](/C=C/S(C)(=O)=O)CC(C)C,54,48,,,,,
